A short description of data set [1]: Acute toxicity, i.v., up-and-down method. As to conditions: mouse, in vivo, iv.
Data set [2] has as its system isolated hearts of rabbits. Kind of data set: Coronary vasodilation in isolated rabbit hearts (Langendorff method). To be noted: Oryctolagus cuniculus, isolated rabbit heart, dosage required to increase coronary outflow by 50%, read-out: Coronary vasodilation ICD50. As to the method: (a) Coronary vasodilation According to Langendorff method (O. Langendorff; Pflugers arch. ges. phisiol., 61, 291-332 (1895)), the coronary vasodilation effects were tested using isolated hearts of rabbits.

Data set [3] concerns Beagle dogs. Kind of data set: Coronary effects on dogs. The class given is in vivo, dog. The method, then:
(c) Coronary effects on dogs Beagle dogs (13 to 16 kg. .male.) were subjected to thoracotomy under anesthesia with sodium pentobarbital, and a probe was attached to the heart left coronary anterior descending artery of each animal, whereupon the coronary blood flow (CF) was measured by an electromagnetic flowmeter. On the other hand, a probe was attached to the exposed right femoral artery, and the femoral artery blood flow (FAF) was measured by an electromagnetic flowmeter. A canule was inserted to the left femoral artery, and the systemic blood pressure (BP) was bloody measured by a transducer. The heart rate (HR) was measured by an electrocardiogram. The sample solution was intravenously injected to the right femoral vein. The coronary blood flow (CF), the femoral artery blood flow (FAF) and the heart rate (HR) were represented by a % increase upon the injection of each sample as compared with the respective control value upon the injection of a saline. […]

Each structure is given as a SMILES string. In brackets after ≈: the same amount, converted by molar mass. Where two headings read alike, the source gives them in different places.

Usually LD50 stands for the dose expected to kill half of the subjects tested. A high value points to lower toxicity.

For `COC(=O)C1=C(COC(N)=O)NC(C)=C(C(=O)OCCN2CCOCC2)C1c1cccc([N+](=O)[O-])c1` (stereo not drawn) [(18), 2-Aminocarbonyloxymethyl-6-methyl-4-(3-nitrophenyl)-3-methoxycarbonyl-5-(β-morpholinoethoxy)carbonyl-1,4-dihydropyridine], the LD50 in data set [1] is > 200 mg/kg. Besides, in data set [2] (Table 1(b)), the EC50 was determined as 1.5 µg/mL (≈ 2.97 µM).

For the compound `COC(=O)C1=C(COC(N)=O)NC(C)=C(C(=O)OCCN(C)Cc2ccccc2)C1c1cccc([N+](=O)[O-])c1` (stereo not drawn) [(15), 2-Aminocarbonyloxymethyl-6-methyl-4-(3-nitrophenyl)-3-methoxycarbonyl-5-(β-N--methylbenzylaminoethoxy)carbonyl-1,4-dihydropyridine], in data set [1], the LD50 was > 200 mg/kg. In data set [2] (Table 1(b)), the EC50 was determined as 0.4 µg/mL (≈ 0.743 µM).

`CCOC(=O)C1=C(COC(=O)Nc2ccccc2)NC(C)=C(C(=O)OC(C)C)C1c1cccc([N+](=O)[O-])c1` (stereo not drawn) [(22), 2-N--Phenylaminocarbonyloxymethyl-6-methyl-4-(3-nitrophenyl)-3-ethoxycarbonyl-5-isopropoxycarbonyl-1,4-dihydropyridine] displayed an LD50 in data set [1] of 80 mg/kg. For the same compound, the EC50 in data set [2] (Table 1(b)) was 0.33 µg/mL (≈ 0.63 µM).

Turning to `CCCOCCOC(=O)C1=C(C)NC(COC(N)=O)=C(C(=O)OCCOCCC)C1c1cccc([N+](=O)[O-])c1` (stereo not drawn) [(12), 2-Aminocarbonyloxymethyl-6-methyl-4-(3-nitrophenyl)-3,5-bis[(β-propoxyethoxy)carbonyl]-1,4-dihydropyridine], in data set [1], the LD50 amounted to 123 mg/kg. The EC50 in data set [2] (Table 1(b)) was 0.15 µg/mL (≈ 0.273 µM).

With `CCOC(=O)C1=C(C)NC(COC(=O)NC)=C(C(=O)OCC)C1c1ccccc1[N+](=O)[O-]` (stereo not drawn) [(6), 2-N--Methylaminocarbonyloxymethyl-6-methyl-4-(2-nitrophenyl)-3,5-diethoxycarbonyl-1,4-dihydropyridine], the LD50 in data set [1] stood at 30 mg/kg. For the same compound, the EC50 in data set [2] (Table 1(a)) was found to be 0.45 µg/mL (≈ 1.01 µM).

As to `CNC(=O)OCC1=C(C(=O)OC)C(c2cccc([N+](=O)[O-])c2)C(C(=O)OCCN(C)Cc2ccccc2)=C(C)N1` (stereo not drawn) [(16), 2-N--Methylaminocarbonyloxymethyl-6-methyl-4-(3-nitrophenyl)-3-methoxycarbonyl-5-(β-N--methylbenzylaminoethoxy)carbonyl-1,4-dihydropyridine], the LD50 in data set [1] amounted to 146 mg/kg. Further, the EC50 in data set [2] (Table 1(b)) amounted to 0.25 µg/mL (≈ 0.452 µM).

The compound `CCOC(=O)C1=C(C)NC(COC(N)=O)=C(C(=O)OCC)C1c1cccc([N+](=O)[O-])c1` (stereo not drawn) [(1)] returned an LD50 in data set [1] of 207 mg/kg. The EC50 in data set [2] (Table 1(a)) was determined as 0.24 µg/mL (≈ 0.554 µM).

Consider `COC(=O)C1=C(C)NC(C)=C(C(=O)OC)C1c1ccccc1[N+](=O)[O-]` [nifedipine, 2,6-Dimethyl-4-(2-nitrophenyl)-3,5-dimethoxycarbonyl-1,4-dihydropyridine], for which the EC50 in data set [2] (Table 1(a)) came out at 0.29 µg/mL (≈ 0.837 µM); in data set [2] (Table 1(b)) it was 0.22 µg/mL (≈ 0.635 µM). The “BP (systemic blood pressure) % decrease” value in data set [3] (1 μg/kg i.v.) is recorded as 2%; in data set [3] (3 μg/kg i.v.), 10%; in data set [3] (10 μg/kg i.v.), 18%. The “CF (coronary blood flow) % increase” value was 10% in data set [3] (1 μg/kg i.v.), 48% in data set [3] (3 μg/kg i.v.) and 86% in data set [3] (10 μg/kg i.v.). Further, the results for the “FAF (femoral artery blood flow) % increase” value in data set [3] (1 μg/kg i.v.), in data set [3] (3 μg/kg i.v.) and in data set [3] (10 μg/kg i.v.) were -3%, -4% and 10%, respectively. Moreover, the “HR (heart rate) % increase” value in data set [3] (1 μg/kg i.v.) came out at 0.6%; in data set [3] (3 μg/kg i.v.) it was 2%; in data set [3] (10 μg/kg i.v.) it was 4%.

For the compound `CCCOCCOC(=O)C1=C(COC(N)=O)NC(C)=C(C(=O)OCCN(C)Cc2ccccc2)C1c1cccc([N+](=O)[O-])c1` (stereo not drawn) [(19), 2-Aminocarbonyloxymethyl-6-methyl-4-(3-nitrophenyl)-3-(β-propoxyethoxy)carbonyl-5-(β-N--methylbenzylaminoethoxy)carbonyl-1,4-dihydropyridine], the LD50 in data set [1] was 168 mg/kg. Besides, the EC50 in data set [2] (Table 1(b)) amounted to 0.18 µg/mL (≈ 0.295 µM).

The compound `COCCOC(=O)C1=C(C)NC(COC(N)=O)=C(C(=O)OCCOC)C1c1ccccc1Cl` (stereo not drawn) [(20), 2-Aminocarbonyloxymethyl-6-methyl-4-(2-chlorophenyl)-3,5-bis[(β-methoxyethoxy)carbonyl]-1,4-dihydropyridine] yielded an LD50 in data set [1] of 184 mg/kg. Besides, the EC50 in data set [2] (Table 1(b)) was 0.36 µg/mL (≈ 0.745 µM).

In turn, `CCOC(=O)C1=C(COC(=O)NC)NC(C)=C(C(=O)OC(C)C)C1c1cccc([N+](=O)[O-])c1` (stereo not drawn) [(8), 2-N--Methylaminocarbonyloxymethyl-6-methyl-4-(3-nitrophenyl)-3-ethoxycarbonyl-5-isopropoxycarbonyl-1,4-dihydropyridine] returned an LD50 in data set [1] of 37 mg/kg. For the same compound, in data set [2] (Table 1(a)), the EC50 is 0.23 µg/mL (≈ 0.498 µM).

With `CCOC(=O)C1=C(C)NC(COC(=O)NC2CCCCC2)=C(C(=O)OCCOC)C1c1cccc([N+](=O)[O-])c1` (stereo not drawn) [(14), 2-N--Cyclohexylaminocarbonyloxymethyl-6-methyl-5-ethoxycarbonyl-3-(β-methoxyethoxy)carbonyl-1,4-dihydropyridine], the LD50 in data set [1] is 88 mg/kg. In addition, in data set [2] (Table 1(b)), the EC50 is 0.35 µg/mL (≈ 0.642 µM).

In data set [1], `CCCOCCOC(=O)C1=C(C)NC(COC(N)=O)=C(C(=O)OCC)C1c1cccc([N+](=O)[O-])c1` (stereo not drawn) [(9), 2-Aminocarbonyloxymethyl-6-methyl-4-(3-nitrophenyl)-3-ethoxycarbonyl-5-(β-propoxyethoxy)carbonyl-1,4-dihydropyridine] had an LD50 of 136 mg/kg. Moreover, the EC50 in data set [2] (Table 1(b)) was 0.34 µg/mL (≈ 0.692 µM).

In data set [1], `CCCOCCOC(=O)C1=C(C)NC(COC(N)=O)=C(C(=O)OCC)C1c1ccccc1[N+](=O)[O-]` (stereo not drawn) [(10), 2-Aminocarbonyloxymethyl-6-methyl-4-(2-nitrophenyl)-3-ethoxycarbonyl-5-(β-propoxyethoxy)carbonyl-1,4-dihydropyridine] gave an LD50 of 84 mg/kg. Besides, the EC50 in data set [2] (Table 1(b)) was determined as 0.3 µg/mL (≈ 0.61 µM).

In data set [1], `CCOC(=O)C1=C(C)NC(COC(N)=O)=C(C(=O)OCC)C1c1ccccc1[N+](=O)[O-]` (stereo not drawn) [(5), 2-Aminocarbonyloxymethyl-6-methyl-4-(2-nitrophenyl)-3,5-diethoxycarbonyl-1,4-dihydropyridine] returned an LD50 of 104 mg/kg. Further, the EC50 in data set [2] (Table 1(a)) is 0.48 µg/mL (≈ 1.11 µM).

As for `COC(=O)C1=C(C)NC(COC(N)=O)=C(C(=O)OC)C1c1cccc([N+](=O)[O-])c1` (stereo not drawn) [(3), 2-Aminocarbonyloxymethyl-6-methyl-4-(3-nitrophenyl)-3,5-dimethoxycarbonyl-1,4-dihydropyridine], in data set [1], the LD50 turned out to be 167 mg/kg. Moreover, the EC50 in data set [2] (Table 1(a)) was 0.36 µg/mL (≈ 0.888 µM).

On to `COC(=O)C1=C(COC(N)=O)NC(C)=C(C(=O)OCCN2CCN(C)CC2)C1c1cccc([N+](=O)[O-])c1` (stereo not drawn) [(17), 2-Aminocarbonyloxymethyl-6-methyl-4-(3-nitrophenyl)-3-methoxycarbonyl-5-[β-(4-methyl-1-piperazinyl)ethoxycarbonyl]-1,4-dihydropyridine], for which the LD50 in data set [1] worked out at 68 mg/kg. Moreover, the EC50 in data set [2] (Table 1(b)) was 2 µg/mL (≈ 3.86 µM).

With `CCOC(=O)C1=C(COC(N)=O)NC(C)=C(C(=O)OC(C)C)C1c1cccc([N+](=O)[O-])c1` (stereo not drawn) [(7), 2-Aminocarbonyloxymethyl-6-methyl-4-(3-nitrophenyl)-3-ethoxycarbonyl-5-isopropoxycarbonyl-1,4-dihydropyridine], in data set [1], the LD50 stood at 76 mg/kg. The EC50 in data set [2] (Table 1(a)) amounted to 0.24 µg/mL (≈ 0.536 µM).

Regarding `CCOC(=O)C1=C(COC(=O)Nc2ccc(Cl)cc2)NC(C)=C(C(=O)OC(C)C)C1c1cccc([N+](=O)[O-])c1` (stereo not drawn) [(21), 2-(4-chlorophenyl)aminocarbonyloxymethyl-6-methyl-4-(3-nitrophenyl)-3-ethoxycarbonyl-5-isopropoxycarbonyl-1,4-dihydropyridine], the LD50 in data set [1] worked out at 83 mg/kg. In addition, in data set [2] (Table 1(b)), the EC50 was determined as 0.28 µg/mL (≈ 0.502 µM).

`CCCOCCOC(=O)C1=C(C)NC(COC(=O)NC)=C(C(=O)OCCOCCC)C1c1cccc([N+](=O)[O-])c1` (stereo not drawn) [(13), 2-N--Methylaminocarbonyloxymethyl-6-methyl-4-(3-nitrophenyl)-3,5-bis[(β-propoxyethoxy)carbonyl]-1,4-dihydropyridine] showed an LD50 in data set [1] of 104 mg/kg. For the same compound, the EC50 in data set [2] (Table 1(b)) was determined as 0.04 µg/mL (≈ 0.071 µM).

In data set [1], `CCCOCCOC(=O)C1=C(COC(N)=O)NC(C)=C(C(=O)OCC)C1c1cccc([N+](=O)[O-])c1` (stereo not drawn) [(11), 2-Aminocarbonyloxymethyl-6-methyl-4-(3-nitrophenyl)-5-ethoxycarbonyl-3-(β-propoxyethoxy)carbonyl-1,4-dihydropyridine] gave an LD50 of 123 mg/kg. Moreover, the EC50 in data set [2] (Table 1(b)) is 0.25 µg/mL (≈ 0.509 µM).

The values are drawn from patent US4404378A, “2-Substituted or unsubstituted aminocarbonyloxyalkyl-1,4-dihydropyridines” (Banyu Pharmaceutical Co., Ltd., priority 1981, dated 1983).
